Patent US20240287138A1, “CYCLIC PEPTIDES FOR INHIBITING TNF RECEPTOR 1 ACTIVITY” (Merck Sharp & Dohme LLC, priority 2023, published 2024)
Numbered stars: 1 amine (or outer) side, 2 acyl side, 3 side chain; on linkers, the order of the positions; unused ones are H or OH. Bridge positions count the residues as written; N and C are the ends. Square brackets hold non-standard residues; d marks the D form. Peptide text beside a SMILES is read from it. * marks the point of attachment. Trp(βS-Me,7-OMe) = COc1cccc2c([C@H](C)[C@H](N)C(=O)O)c[nH]c12; Trp(1-CH2COOH) = N[C@@H](Cc1cn(CC(=O)O)c2ccccc12)C(=O)O; Trp(7-CN) = N#Cc1cccc2c(C[C@H](N)C(=O)O)c[nH]c12; Trp(7-Cl) = N[C@@H](Cc1c[nH]c2c(Cl)cccc12)C(=O)O; X55 = O=C([C@H]1C[C@H](c2nn[nH]n2)CN1[*:1])[*:2]; Phe(4-CONH2) = NC(=O)c1ccc(C[C@H](N)C(=O)O)cc1; Phe(4-COOH) = N[C@@H](Cc1ccc(C(=O)O)cc1)C(=O)O; 4Pal(3S-Me) = C[C@@H](c1ccncc1)[C@H](N)C(=O)O; Trp(7-aza) = N[C@@H](Cc1c[nH]c2ncccc12)C(=O)O; Asn(3S-OH) = NC(=O)[C@@H](O)[C@H](N)C(=O)O; X47 = NC[C@H]1C[C@H](C(=O)[*:2])N([*:1])C1; X46 = Nc1ncc(C[C@H](N[*:1])C(=O)[*:2])cn1; Pip(5R-OH) = O=C(O)[C@@H]1CC[C@@H](O)CN1; X1 = O=C([C@@H]1CC[C@H](N[*:1])C1)[*:2]; Pip(4-aza) = O=C(O)[C@@H]1CNCCN1; 4Pal = N[C@@H](Cc1ccncc1)C(=O)O; NMeE = CN[C@@H](CCC(=O)O)C(=O)O; dHyp = O=C(O)[C@H]1C[C@H](O)CN1; Ahp(2) = CCCCC[C@H](N)C(=O)O; αMeS = C[C@](N)(CO)C(=O)O; Carboxymethyl = O=C(O)C*; Nle = CCCC[C@H](N)C(=O)O; dNMeA = CN[C@H](C)C(=O)O; Sar = CNCC(=O)O

How the values were obtained:
[1] = biological target: T1, TNFα-induced NF-κB signal transduction pathway (TNFR1 signaling) in THP-1 cells (Homo sapiens, UniProt P19438); assay: THP-1 Lucia NF-κB reporter cell assay, inhibition of TNFα-induced NF-κB signaling; assay type: cell-based; details: THP-1 NF-κB Lucia reporter cells, 10 ng/mL TNFα, 16-18 h, secreted luciferase; read-out: THP-1 IC50
T1 sequence (P19438 30-455): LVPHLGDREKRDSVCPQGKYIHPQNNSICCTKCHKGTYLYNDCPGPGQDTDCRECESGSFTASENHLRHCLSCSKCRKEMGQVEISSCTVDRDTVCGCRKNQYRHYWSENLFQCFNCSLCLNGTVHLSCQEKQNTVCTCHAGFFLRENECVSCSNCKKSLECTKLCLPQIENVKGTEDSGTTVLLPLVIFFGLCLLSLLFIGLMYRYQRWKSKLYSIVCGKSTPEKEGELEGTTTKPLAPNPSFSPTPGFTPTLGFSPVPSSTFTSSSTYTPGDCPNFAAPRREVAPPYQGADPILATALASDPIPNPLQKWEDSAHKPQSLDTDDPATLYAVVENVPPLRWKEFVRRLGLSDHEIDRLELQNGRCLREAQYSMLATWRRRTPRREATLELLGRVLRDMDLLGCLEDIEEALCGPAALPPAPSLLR
In short: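 Macrocyclic peptides were preincubated 1 h at 37 °C with THP-1 NF-κB-Lucia reporter cells (20,000 cells/well) in antibiotic-free RPMI 1640/10% FBS, then stimulated with 10 ng/mL human TNFα overnight (16-18 h). Secreted luciferase in supernatant was read by luminescence; IC50 from 4-parameter logistic fits.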

[2] = biological target: T2, human soluble TNFR1 (sTNFR1) (Homo sapiens, UniProt P19438); assay: Human sTNFR1-peptide displacement assay (LanthaScreen Eu TR-FRET binding assay)
T2 construct: made in house; host or cells: Sf21 (baculovirus)
T2 sequence (P19438 with tags, fused parts or gaps): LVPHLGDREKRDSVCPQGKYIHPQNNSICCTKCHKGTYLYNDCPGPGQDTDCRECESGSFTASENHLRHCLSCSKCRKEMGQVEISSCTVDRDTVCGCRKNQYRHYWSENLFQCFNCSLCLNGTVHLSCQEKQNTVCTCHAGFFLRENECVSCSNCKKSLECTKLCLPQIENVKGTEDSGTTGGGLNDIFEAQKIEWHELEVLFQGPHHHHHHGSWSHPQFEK
Method: A. Procedure for Human sTNFR1-Peptide Displacement Assay
The affinity was determined using LanthaScreen Eu-based time-resolved fluorescence resonance energy transfer (TR-FRET)-based binding assay.
A TR-FRET assay measuring the displacement of biotinylated peptide SEQ ID NO. 1 from human soluble TNFR1 (sTNFR1) in a pre-formed complex by a macrocyclic peptide yields the affinity (Kd^app) of the cyclic peptide for sTNFR1. The reagents for the assay include: the C′-terminally 6His-tagged sTNFR1 (residues 1-211) protein purified from a Sf21 baculovirus expression system, the biotin-tagged B0372 peptide described in section “Preparation of Final Compounds”, part E, the LanthaScreen™ anti-His Tag Europium donor (Life Technologies Corporation (San Diego, CA), cat. #PV5597), and a streptavidin-conjugate Alexa Fluor™ 647 acceptor (Invitrogen (Waltham, MA), cat. #S32357). Time-resolved TR-FRET is achieved when sTNFR1 is bound to biotinylated peptide SEQ ID NO. 1 through coupling of the donor and acceptor FRET pair.
100 nM biotinylated peptide SEQ ID NO. […] 100 nM biotinylated peptide SEQ ID NO. 1 was chosen as it reflects the ˜Kd for this complex. After 30 min at ambient temperature, each test peptide (2 mM stock in DMSO) is titrated in a 20 point, ˜3-fold discrete dose-response using an acoustic-dispense liquid handler. Specifically, 80 nL of peptide/DMSO is transferred into a ProxiPlate-384 Plus 384-well assay plate (PerkinElmer, cat. #6008289). To this plate, 8 μL of the previously formed sTNFR 1-biotinylated peptide SEQ ID NO. 1 complex is added and allowed to reach binding equilibrium with the test peptide at ambient temperature for 90 min.
The TR-FRET signal is measured with the following EnVision® settings: excitation laser at 337 nm; emission1=615 nm, emission2=665 nm, LANCE/DELFIA dichroic mirror, delay time=[…]. The signal of each well is determined as the ratio of the emission at 665 nm to that at 615 nm. Percent displacement is determined by normalization to control wells containing DMSO (0%) or a saturating concentration of a displaceable peptide (100%). The %-effect as a function of peptide concentration is fit to a five-parameter logistic fit based on the Morrison equation to account for tight binding kinetics.

Row | Compound | IC50 [1] | Kd [2] | IC50 [2]
1 | CCCC[C@@H]1NC(=O)[C@@H]2CC[C@@H](C2)NC(=O)[C@H]([C@@H](C)c2c[nH]c3c(OC)cccc23)NC(=O)CN(C)C(=O)[C@H](Cc2ccc(OCC(=O)O)cc2)NC(=O)[C@H](Cc2cnc(N)nc2)NC(=O)[C@](C)(CO)NC(=O)[C@H](Cc2c[nH]c3c(C#N)cccc23)NC(=O)[C@H](Cc2ccc(OCC(=O)O)cc2)NC(=O)[C@H](CC(N)=O)NC(=O)[C@H]2C[C@H](O)CN2C(=O)[C@H](Cc2cn(CC(=O)O)c3ccccc23)NC(=O)[C@@H]2CC[C@@H](O)CN2C(=O)[C@H](Cc2ccncc2)NC1=O [SEQ ID NO. 6] (cyclo([4Pal][Pip(5R-OH)][Trp(1-CH2COOH)][dHyp]NY(Carboxymethyl)[Trp(7-CN)][αMeS][X46]Y(Carboxymethyl)[Sar][Trp(βS-Me,7-OMe)][X1][Nle])) | 0.8 nM | 0.08 nM | 
2 | CCCC[C@@H]1NC(=O)[C@@H]2CC[C@@H](C2)NC(=O)[C@H]([C@@H](C)c2c[nH]c3c(OC)cccc23)NC(=O)CN(C)C(=O)[C@H](Cc2ccc(C(=O)O)cc2)NC(=O)[C@H](Cc2ccc(C(N)=O)cc2)NC(=O)[C@](C)(CO)NC(=O)[C@H](Cc2c[nH]c3c(Cl)cccc23)NC(=O)[C@H](Cc2ccc(C(=O)O)cc2)NC(=O)[C@H](CC(N)=O)NC(=O)[C@H]2C[C@H](c3nn[nH]n3)CN2C(=O)[C@H](Cc2c[nH]c3ccccc23)NC(=O)[C@@H]2CC[C@@H](O)CN2C(=O)[C@H](Cc2ccncc2)NC1=O [SEQ ID NO. 11] (cyclo([4Pal][Pip(5R-OH)]W[X55]N[Phe(4-COOH)][Trp(7-Cl)][αMeS][Phe(4-CONH2)][Phe(4-COOH)][Sar][Trp(βS-Me,7-OMe)][X1][Nle])) | 0.7 nM | 0.07 nM | 
3 | CCCC[C@@H]1NC(=O)[C@@H]2CC[C@@H](C2)NC(=O)[C@H]([C@@H](C)c2c[nH]c3c(OC)cccc23)NC(=O)CN(C)C(=O)[C@H](Cc2ccc(C(=O)O)cc2)NC(=O)[C@H](Cc2ccc(C(N)=O)cc2)NC(=O)[C@](C)(CO)NC(=O)[C@H](Cc2c[nH]c3c(Cl)cccc23)NC(=O)[C@H](Cc2ccc(C(=O)O)cc2)NC(=O)[C@H](CC(N)=O)NC(=O)[C@H]2C[C@H](CN)CN2C(=O)[C@H](Cc2c[nH]c3ccccc23)NC(=O)[C@@H]2CC[C@@H](O)CN2C(=O)[C@H](Cc2ccncc2)NC1=O [SEQ ID NO. 15] (cyclo([4Pal][Pip(5R-OH)]W[X47]N[Phe(4-COOH)][Trp(7-Cl)][αMeS][Phe(4-CONH2)][Phe(4-COOH)][Sar][Trp(βS-Me,7-OMe)][X1][Nle])) | 0.5 nM | 0.1 nM | 
4 | CCCC[C@@H]1NC(=O)[C@@H]2CC[C@@H](C2)NC(=O)[C@H]([C@@H](C)c2c[nH]c3c(OC)cccc23)NC(=O)CN(C)C(=O)[C@H](Cc2ccc(C(=O)O)cc2)NC(=O)[C@H](Cc2ccc(C(N)=O)cc2)NC(=O)[C@](C)(CO)NC(=O)[C@H](Cc2c[nH]c3c(C#N)cccc23)NC(=O)[C@H](Cc2ccncc2)NC(=O)[C@H]([C@H](O)C(N)=O)NC(=O)[C@H]2C[C@H](O)CN2C(=O)[C@H](Cc2c[nH]c3ccccc23)NC(=O)[C@@H]2CC[C@@H](O)CN2C(=O)[C@H](Cc2ccncc2)NC1=O [SEQ ID NO. 25] (cyclo([4Pal][Trp(7-CN)][αMeS][Phe(4-CONH2)][Phe(4-COOH)][Sar][Trp(βS-Me,7-OMe)][X1][Nle][4Pal][Pip(5R-OH)]W[dHyp][Asn(3S-OH)])) | 0.8 nM | 0.04 nM | 
5 | CCCC[C@@H]1NC(=O)CSC[C@@H](C(=O)NCC(=O)N[C@@H](CCC(=O)O)C(=O)N[C@@H](CCC(=O)O)C(N)=O)NC(=O)[C@H]([C@@H](C)c2c[nH]c3c(OC)cccc23)NC(=O)CN(C)C(=O)[C@H](Cc2ccc(O)cc2)NC(=O)[C@H](Cc2ccc(C(=O)O)cc2)NC(=O)[C@](C)(CO)NC(=O)[C@H](Cc2c[nH]c3c(Cl)cccc23)NC(=O)[C@H](Cc2ccncc2)NC(=O)[C@H](CC(N)=O)NC(=O)[C@H](CCC(=O)O)N(C)C(=O)[C@H](Cc2c[nH]c3ncccc23)NC(=O)[C@@H]2CNCCN2C(=O)[C@H](Cc2ccncc2)NC1=O [SEQ ID NO. 255] ({CH2CO}-[Nle][4Pal][Pip(4-aza)][Trp(7-aza)][NMeE]N[4Pal][Trp(7-Cl)][αMeS][Phe(4-COOH)]Y[Sar][Trp(βS-Me,7-OMe)]CGEE-NH2; thioether N-14) |  | 1.01 nM | 0.7 nM
6 | CCCC[C@@H]1NC(=O)CSC[C@@H](C(N)=O)NC(=O)[C@H]([C@@H](C)c2c[nH]c3c(OC)cccc23)NC(=O)CN(C)C(=O)[C@H](Cc2ccc(O)cc2)NC(=O)[C@H](Cc2ccc(C(=O)O)cc2)NC(=O)[C@](C)(CO)NC(=O)[C@H](Cc2c[nH]c3c(Cl)cccc23)NC(=O)[C@H](Cc2ccncc2)NC(=O)[C@H](CC(N)=O)NC(=O)[C@H](CCC(=O)O)N(C)C(=O)[C@H](Cc2c[nH]c3ncccc23)NC(=O)[C@@H]2CNCCN2C(=O)[C@H](Cc2c[nH]cn2)NC1=O [SEQ ID NO. 264] ({CH2CO}-[Nle]H[Pip(4-aza)][Trp(7-aza)][NMeE]N[4Pal][Trp(7-Cl)][αMeS][Phe(4-COOH)]Y[Sar][Trp(βS-Me,7-OMe)]C-NH2; thioether N-14) |  |  | 1.49 nM
7 | CCCC[C@@H]1NC(=O)CSC[C@@H](C(N)=O)NC(=O)[C@H]([C@@H](C)c2c[nH]c3c(OC)cccc23)NC(=O)[C@@H](C)N(C)C(=O)[C@H](Cc2ccc(O)cc2)NC(=O)[C@H](Cc2ccc(C(=O)O)cc2)NC(=O)[C@](C)(CO)NC(=O)[C@H](Cc2c[nH]c3c(Cl)cccc23)NC(=O)[C@H](Cc2ccncc2)NC(=O)[C@H](CC(N)=O)NC(=O)[C@H]2CCCN2C(=O)[C@H](Cc2c[nH]c3ccccc23)NC(=O)[C@@H]2CNCCN2C(=O)[C@H](Cc2ccncc2)NC1=O [SEQ ID NO. 276] ({CH2CO}-[Nle][4Pal][Pip(4-aza)]W[dP]N[4Pal][Trp(7-Cl)][αMeS][Phe(4-COOH)]Y[dNMeA][Trp(βS-Me,7-OMe)]C-NH2; thioether N-14) |  |  | 2.41 nM
8 | CCCCC[C@@H]1NC(=O)[C@@H]2CC[C@@H](C2)NC(=O)[C@H]([C@@H](C)c2c[nH]c3c(OC)cccc23)NC(=O)CN(C)C(=O)[C@H](Cc2ccc(C(N)=O)cc2)NC(=O)[C@H](Cc2ccc(C(N)=O)cc2)NC(=O)[C@](C)(CO)NC(=O)[C@H](Cc2c[nH]c3c(C#N)cccc23)NC(=O)[C@H](Cc2ccc(C(=O)O)cc2)NC(=O)[C@H](CC(N)=O)NC(=O)[C@H]2C[C@H](O)CN2C(=O)[C@H](Cc2c[nH]c3ccccc23)NC(=O)[C@H](CCC(=O)O)NC(=O)[C@H]([C@@H](C)c2ccncc2)NC1=O [SEQ ID NO. 280] (cyclo([Ahp(2)][4Pal(3S-Me)]EW[dHyp]N[Phe(4-COOH)][Trp(7-CN)][αMeS][Phe(4-CONH2)][Phe(4-CONH2)][Sar][Trp(βS-Me,7-OMe)][X1])) |  | 0.25 nM | 
